# From patent publication US11618746B2, “Inhibitors of APOL1 and methods of using same” (Vertex Pharmaceuticals Incorporated, priority 2018, dated 2023)
# Target: T1, APOL1 G1 Protein (Homo sapiens, UniProt O14791, I384M/S342G)
# T1 sequence (O14791 28-398 S342G/I384M): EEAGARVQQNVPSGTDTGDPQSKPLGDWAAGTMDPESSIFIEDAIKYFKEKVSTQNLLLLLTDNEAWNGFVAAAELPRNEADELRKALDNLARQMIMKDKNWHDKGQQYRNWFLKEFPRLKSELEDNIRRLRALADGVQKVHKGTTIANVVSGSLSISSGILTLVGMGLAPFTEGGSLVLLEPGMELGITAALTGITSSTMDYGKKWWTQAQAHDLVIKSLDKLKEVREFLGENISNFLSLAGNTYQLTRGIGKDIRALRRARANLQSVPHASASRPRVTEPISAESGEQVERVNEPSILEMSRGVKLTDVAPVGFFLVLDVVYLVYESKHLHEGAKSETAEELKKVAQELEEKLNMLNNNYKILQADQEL
# Test: Trypanosoma brucei brucei lysis assay using APOL1 recombinant protein (AlamarBlue viability readout)
# Assay type: cell-based
# Conditions: Trypanosoma brucei brucei (Lister 427 VSG 221 bloodstream form) lysis by 0.05 μg/mL recombinant APOL1 G1, 16 hrs
# From the text: Trypanosoma brucei brucei is a blood stream parasite to which human, gorillas and baboon are immune due to the presence of the APOL1 protein in their HDL particles. The protein is uptaken by the parasite via the TbHpHb receptor located in its flagellar pocket and is bonded by the Hpr protein contained in the HDL particles which triggers the receptor endocytosis by the parasite.
# Following endocytosis, the formed vesicle containing the HDL particle matures from early to late endosome, and subsequently to lysosome. The concomitant pH change in the lumen of the vesicle triggers the insertion of the APOL1 protein into the membrane of the late endosome/lysosome and hereby triggers lysosomal membrane premeabilisation and as a further downstream event, trypanosome lysis. Trypanosoma brucei brucei is sensitive to lysis by all three APOL1 variants (G0, G1, and G2).
# The Trypanosoma brucei brucei lysis assay is a lysis assay of the parasite using recombinant APOL1 protein variant followed by a fluorescent detection method of viability by the addition of AlamarBlue reagent to the assay well, a general metabolic redox indicator (AlamarBlue assay).
# Briefly, the AlamarBlue active compound, the resazurin, a blue, water soluble, non-toxic and cell permeable molecule, which can be followed by absorbance, is reduced by various metabolic pathways into resorufin, a red compound which can be followed by either absorbance or fluorescence. The assay allows the calculation of the percent viability (percent of living Trypanosomes remaining in each well) at the end of a lysis relative to the untreated condition by interpolation of fluorescent values (FLU) on a standard curve with a known amount of seeded trypanosome/well.
# Trypanosoma brucei brucei (ATCC, Cat. No. PRA-382) • Lister 427 VSG 221 bloodstream form.
# Thaw/Expansion Media (ATCC Medium 2834 Modified HMI-9 Medium)
# Equipment • E1-Clip Tip pipette 12 channel adjustable 2-125 μL, Cat. No. 4672070BT • ThermoFisher MultiDrop 384, Cat. No. 5840300 • Multidrop • Agilent Bravo, Cat. No. G5409A • Bravo • SpectraMax M5
# Trypanosoma brucei brucei Culture
# Step 2, Day 4 • Centrifuge at 800×g for 5 minutes at room temperature. • Resuspend in 1 mL media. • Make a 1:25 fold dilution (10 μL/240 μL media). • Count on a hemocytometer (after adding parasites). • Let sit for 1-2 minutes for the parasites to settle. • Count should be approximately 100 viable motile parasites/16 grid or approximately 25×10^6 parasites/flask. • Passage the parasites by adding 1×10^6 parasites/T75 flask in 20 mL media. • Passage the parasites by adding 2.33×10^6 parasites/T175 flask in 46.6 mL media. • For every T75 flask should make enough for approximately 1.5×384 well assay plates. • For every T175 flask should make enough for approximately 3.8×384 well assay plates.
# Step 3. Day 6 • Centrifuge at 800×g for 5 minutes. • Resuspend in 3 mL assay media (No phenol red, no FBS) per 75 starting flask. • Resuspend in 7 mL assay media (No phenol red, no FBS) per 175 flask • Make a 1:25 fold dilution. • Count by hemocytometer. • Every T75 flask set up should have approximately 75×10^6 parasites/flask (verify doubling time=8.7 hrs 1 hr). • Every T175 flask set up should have approximately 175×10^6 parasites/flask (verify doubling time=8.7 hrs±1 hr). • Require 46×10^6 parasites per 384 well plate (at 120,000 parasites per well).
# Step 2, Day 2 • Centrifuge at 800×g for 5 minutes at room temperature. • Resuspend in 1 mL media. • Make a 1:25 fold dilution (10 L/240 μL media). • Let sit for 1-2 minutes for the parasites to settle. • Count should be approximately 100 viable motile parasites/16 grid or approximately 8×10^6 parasites per flask. • Passage the parasites by adding 1.25×10^6 parasites per T75 flask in 20 mL media. • For every T75 flask set up should have approximately 1.5×384 well assay plates. • For every T175 flask setup should have approximately 3.8×384 well assay plates. […]
row,SMILES,IC50 [nM]
1,O=C(CCc1c(-c2ccc(F)cc2)[nH]c2c(F)ccc(F)c12)N[C@H]1CCNC1=O [Compound 78],> 1000
2,"O=C(CCc1c(-c2ccc(F)cc2)[nH]c2ccc(OCc3ccccc3)cc12)N[C@H]1CCNC1=O [Compound 54, 3-[5-benzyloxy-2-(4-fluorophenyl)-1H-indol-3-yl]-N-[(3S)-2-oxopyrrolidin-3-yl]propanamide]",250 to 1000
3,O=C(CCc1c(-c2ccccc2)[nH]c2c(F)c(F)c(F)cc12)N[C@@H]1C(=O)NC[C@H]1O [Compound 80],< 250
4,O=C(CCc1c(-c2ccccc2)[nH]c2cc(F)cc(F)c12)N[C@@H]1C(=O)NC[C@H]1O [Compound 85],< 250
5,O=C(CCc1c(-c2ccc(Cl)c(F)c2)[nH]c2ccccc12)N[C@@H]1C(=O)NC[C@H]1O [Compound 120],< 250
6,"O=C(CCc1c(-c2ccc(F)cc2)[nH]c2c(F)cc(F)cc12)N[C@H]1CCNC1=O [Compound 3, 3-[5,7-difluoro-2-(4-fluorophenyl)-1H-indol-3-yl]-N-[(3S)-2-oxopyrrolidin-3-yl]propanamide]",< 250
7,Cc1cc(F)cc2c(CCC(=O)N[C@@H]3C(=O)NC[C@H]3O)c(-c3ccc(F)cc3)[nH]c12 [Compound 37],< 250
8,Cc1ccc(-c2[nH]c3ccccc3c2CCC(=O)N[C@@H]2C(=O)NC[C@H]2O)c(F)c1 [Compound 122],< 250
9,"O=C(CCc1c(-c2ccccc2)[nH]c2cccc(F)c12)N[C@@H]1C(=O)NC[C@H]1O [Compound 114, 3-(4-fluoro-2-phenyl-1H-indol-3-yl)-N-[(3S,4R)-4-hydroxy-2-oxo-pyrrolidin-3-yl]propanamide]",250 to 1000
10,N#Cc1cc(F)cc2c(CCC(=O)N[C@@H]3C(=O)NC[C@H]3O)c(-c3ccc(F)cc3)[nH]c12 [Compound 42],< 250
11,"O=C(CCc1c(-c2ccc(F)cc2)[nH]c2ccccc12)N[C@@H]1C(=O)NC[C@H]1O [Compound 87, 3-[2-(4-fluorophenyl)-1H-indol-3-yl]-N-[(3S,4R)-4-hydroxy-2-oxo-pyrrolidin-3-yl]propanamide]",< 250
12,O=C(CCc1c(-c2ccc(F)cc2)[nH]c2c(F)cc(F)cc12)N[C@H]1C[C@H](CO)NC1=O [Compound 8],> 1000
13,O=C(CCc1c(-c2ccc(F)cc2)[nH]c2ccc(F)cc12)N[C@@H]1C(=O)NC[C@H]1O [Compound 46],< 250
14,O=C(CCc1c(-c2ccccc2)[nH]c2ccccc12)N[C@@H]1C(=O)NC[C@H]1O [Compound 86],< 250
15,"O=C(CCc1c(-c2cc(F)cc(F)c2)[nH]c2ccccc12)N[C@@H]1C(=O)NC[C@H]1O [Compound 127, 3-[2-(3,5-difluorophenyl)-1H-indol-3-yl]-N-[(3S,4R)-4-hydroxy-2-oxo-pyrrolidin-3-yl]propanamide]",250 to 1000
16,O=C(CCc1c(-c2ccccc2)[nH]c2c(Br)cccc12)N[C@@H]1C(=O)NC[C@H]1O [Compound 70],< 250
17,"O=C(CCc1c(-c2ccc(F)cc2)[nH]c2ccc(O)cc12)N[C@H]1CCNC1=O [Compound 55, 3-[2-(4-fluorophenyl)-5-hydroxy-1H-indol-3-yl]-N-[(3S)-2-oxopyrrolidin-3-yl]propanamide]",> 1000

row,SMILES,IC50 [nM]
1,Cc1ccc(-c2[nH]c3ccccc3c2CCC(=O)N[C@@H]2C(=O)NC[C@H]2O)cc1F [Compound 126],< 250
2,"N#Cc1ccc(-c2[nH]c3ccccc3c2CCC(=O)N[C@@H]2C(=O)NC[C@H]2O)cc1 [Compound 116, 3-[2-(4-cyanophenyl)-1H-indol-3-yl]-N-[(3S,4R)-4-hydroxy-2-oxo-pyrrolidin-3-yl]propanamide]",< 250
3,COc1ccc(-c2[nH]c3ccccc3c2CCC(=O)N[C@@H]2C(=O)NC[C@H]2O)cc1 [Compound 121],< 250
4,O=C1C[C@H](NC(=O)CCc2c(-c3ccc(F)cc3)[nH]c3c(F)cc(F)cc23)C(=O)N1 [Compound 5],250 to 1000
5,"N#Cc1ccc(-c2[nH]c3c(F)cc(F)cc3c2CCC(=O)N[C@H]2CCNC2=O)cc1 [Compound 20, 3-[2-(4-cyanophenyl)-5,7-difluoro-1H-indol-3-yl]-N-[(3S)-2-oxopyrrolidin-3-yl]propanamide]",< 250
6,CC1C[C@H](NC(=O)CCc2c(-c3ccc(F)cc3)[nH]c3c(F)cc(F)cc23)C(=O)N1 (mixture of isomers) [Compound 6],250 to 1000
7,O=C(CCc1c(-c2ccc(F)cc2)[nH]c2c(F)cc(F)cc12)N[C@H]1C[C@@H](CO)NC1=O [Compound 7],> 1000
8,"O=C(CCc1c(-c2ccccc2)[nH]c2ccc(Cl)cc12)N[C@@H]1C(=O)NC[C@H]1O [Compound 44, 3-(5-chloro-2-phenyl-1H-indol-3-yl)-N-[(3S,4R)-4-hydroxy-2-oxo-pyrrolidin-3-yl]propanamide]",< 250
9,O=C(CCc1c(-c2ccc(F)cc2)[nH]c2c(F)cc(F)cc12)N[C@@H]1CCNC1=O [Compound 13],< 250
10,Cc1cc(F)c2[nH]c(-c3ccc(F)cc3)c(CCC(=O)N[C@@H]3C(=O)NC[C@H]3O)c2c1 [Compound 29],< 250
11,O=C1C[C@@H](NC(=O)CCc2c(-c3ccc(F)cc3)[nH]c3c(F)cc(F)cc23)C(=O)N1 [Compound 16],250 to 1000
12,O=C(CCc1c(-c2cc(F)cc(F)c2)[nH]c2c(F)cc(F)cc12)N[C@@H]1C(=O)NC[C@H]1O [Compound 104],< 250
13,O=C(CCc1c(-c2ccc(F)cc2)[nH]c2c(F)cc(Br)cc12)N[C@H]1CCNC1=O [Compound 27],< 250
14,O=C(CCc1c(-c2ccccc2)[nH]c2cc(F)c(F)cc12)N[C@@H]1C(=O)NC[C@H]1O [Compound 82],< 250
15,O=C(CCc1c(-c2ccc(F)cc2)[nH]c2c(F)c(F)ccc12)N[C@@H]1C(=O)NC[C@H]1O [Compound 58],< 250
16,CC1(NC(=O)CCc2c(-c3ccc(F)cc3)[nH]c3c(F)cc(F)cc23)CCNC1=O (racemic) [Compound 14],< 250
